Patent publication US20070202547A1, “Methods For Detecting Substances Which Bind To The Amyloid Precursor Protein Or Beta Amyloid Fragments, And Binding Compounds” (priority 2004, published 2007)

What was measured:
BACE2 [1] = biological target: T1, BACE2 (Homo sapiens, UniProt P05067, A673V/D672E/K670N/M671F); assay: BACE2 cleavage of APP at the beta-secretase cleavage site (ALPHA); type: biochemical; conditions: MBP-biotinylated APP fusion protein with NFEV site, pH 4.5, 30 minutes
T1 construct: IC50, BACE2 cleavage of APP at the beta-secretase cleavage site; other: MBP-biotinylated APP fusion protein with NFEV s; activity against BACE2 cleavage of APP at the beta-secretase position; other: result in words; biotin label
Experimental: (§1) The effect of Examples 1-4 on cleavage of APP at the beta-secretase cleavage site was assayed as follows:
(§2) • 25 μL 0.2 M Sodium Acetate, pH 4.5 • 10 μL 10× protease inhibitor cocktail (Roche, cat # 1836153) • 10 μL Bovine Serum Albumin (1 mg/mL solution) • 4 μL 5% CHAPS • 1 μL EDTA (150 mM, pH 4.5) • 2 μL DF • 4 μL MBP(Maltose binding protein)—biotininylated APP fusion protein containing the NFEV BACE cleavage site (bacterially expressed, 10 μM solution) • 1 μL DMSO or compound dissolved in DMSO • 2 μL BACE2 (CHO cell expressed protein, 250 nM) • 41 μL distilled water The reactions were incubated at 37° C. for 30 minutes, and were then quenched with 4 μL 1 M TrisHCl, pH 8.0. Detection of MBP Biotin APP(NF) Cleavage Product using ALPHA ALPHA Assay Mix was Prepared as Follows: • 20 μL Streptavidin Donor Beads (from AlphaScreen General IgG (Protein A) Detection Kit Perkin Elmer Life Sciences); 10,000 pts (Part Number 6760617M) • 20 μL Protein A Acceptor beads (from AlphaScreen General IgG (Protein A) Detection Kit Perkin Elmer Life Sciences); 10,000 pts (Part Number 6760617M) • 3.7 μL Affinity purified anti-NF antibody (203 μg/mL) (described in WO 02/094985) • 4.5 mL 0.1% BSA in PBS • 4 μL of quenched reaction mixture was combined with 46 μL of the assay mix. The reactions were incubated at room temperature overnight and read using the ALPHAQuest plate reader.

BACE2 [2] = biological target: T2, BACE2 (Homo sapiens, UniProt P05067, K670N/M671F/D672E/A673V); assay: as above; type: biochemical; conditions: result in words
T2 construct: IC50, BACE2 cleavage of APP at the beta-secretase cleavage site; other: MBP-biotinylated APP fusion protein with NFEV s; activity against BACE2 cleavage of APP at the beta-secretase position; other: result in words; biotin label
Experimental: as §1, §2

BACE2 [3] = assay: BACE2 cleavage of EV amyloid / Aβ (mass spectrometric analysis); type: biochemical; conditions: 100 μM; result in words
Experimental: The effect of inhibition of BACE 2 cleavage of EV amyloid was assayed using a protocol described in Shi et al, 2003, J. Biol. Chem., 278:21286-21294. The results of assaying Examples 1-4 at 100 μM are shown below: […]

BACE1 = assay: BACE cleavage of the full length APP; type: biochemical; conditions: result in words
EV-amyloid = biological target: T3, EV-amyloid (Homo sapiens, UniProt P05067, A673V/D672E); assay: Antibody binding to EV-amyloid, ALPHA sandwich assay; conditions: 37° C., 1 hour; G2-10 and anti-NH2-EVEFR antibodies
T3 construct: An Aβ variant peptide similar to Aβ 1-40
Description: Compounds interacting with secretase or antibody binding to the Aβ domain of APP (or an APP variant) nay also be expected to interact with Aβ or related amyloidogenic peptides. An Aβ variant peptide similar to Aβ 1-40, but with Glu and Val replacing the N-terminal two amino acids (hereafter referred to as “EV-amyloid”), as described in WO 02/094985 and US 2003/0200555 A1, was used to assess interactions between benzofurans and amyloid peptide. As with full length APP variant in Example 5, masking of antibody binding sites was used to assay the potential interactions.
The assay was carried out as follows:
• 1. A master mix of EV-amyloid peptide in binding buffer was made as follows: 10650 μL 0.1% bovine serum albumin in phosphate buffered saline, 1200 μL 10× Protease Inhibitor cocktail (Roche, cat # 1836153), 30 μL EV amyloid peptide (4 μM in DMSO). • 2. […] Interaction between EV amyloid and antibody was assessed by quantification of the EV amyloid peptide by antibody sandwich assay using ALPHA detection. • 7. […]
The solutions were incubated at room temperature for 1 hour prior to addition to the EV-amyloid binding reaction. • 8. […] The plate was incubated overnight, in the dark, at room temperature, and antibody binding to EV-amyloid was detected via ALPHA Quest.

[4] = tested on: H4 neuroglioma cells expressing CTF99; assay: Secreted Aβ42 and Aβ40 in H4 neuroglioma cells expressing CTF99 (ECL); type: cell-based; conditions: 20 h treatment, conditioned media, FIG. 4
Experimental: The compound of Example 1 was titrated into H4 neuroglioma cells expressing CTF99. The cells were treated with the compound of Example 1 for 20 h and conditioned media was harvested.

APP = APP (Homo sapiens, UniProt P05067); assay: Biacore S51 binding to immobilized biotinylated APP; conditions: Biacore S51, SA-coated sensor chip
Experimental: (§3) The compounds of formula (I) are believed to inhibit APP cleavage function by binding APP. The binding of the compound of Example 1 to APP was assayed by BiacoreS51. Biotinylated APP and biotinylated sAPPβ were immobilized to a SA-coated sensor chip. A titration of Example 1 was injected and the binding response for each concentration of Example 1 was obtained for both proteins. FIG. 5 is a graph of response units for […] (◯) or the BACE 1 inhibitor Statine-Val ( ? ) binding to APP.

sAPPβ = biological target: T4, sAPPβ (Homo sapiens, UniProt P05067); assay: Biacore S51 binding to immobilized biotinylated sAPPβ; conditions: Biacore S51, SA-coated sensor chip
T4 construct: Biotinylated APP and biotinylated sAPPβ were immobilized to a SA-coated sensor chip
Experimental: as §3

Row | Structure (SMILES) | IC50 (BACE2 [1]) [µM] | activity against BACE2 cleavage of APP at the beta-secretase position (BACE2 [2]) | effect on BACE2 cleavage at positions 19 and 20 (BACE2 [3]) | inhibition of BACE (BACE1) cleavage/processing of full length APP (BACE1) | inhibition of antibody binding to EV amyloid (EV-amyloid) | production of Aβ42 relative to Aβ40 [4] | binding to APP (APP) | binding to sAPPβ (sAPPβ)
1 | O=C(O)COc1cc2c(cc1CCCOc1ccccc1Cl)OC(CCc1ccccc1)C2 (stereo not drawn) [Example 2, {[6-[3-(2chlorophenoxy)propyl)-2-(2-phenylethyl)-2,3-dihydro-1-benzofuran-5-yl]oxy} acetic] | 4 | capable of inhibiting BACE2 cleavage of APP at the beta-secretase position with similar effectiveness to their inhibition of BACE1 cleavage at the same site | substantially enhanced cleavage at positions 19 and 20 | inhibit both BACE processing of APP | approximately 40% |  |  | 
2 | O=C(O)COc1cc2c(cc1CCCOc1ccccc1)OC(CCc1ccccc1)C2 (stereo not drawn) [Example 1, {[6-(3-phenoxypropyl)-2-(2-phenylethyl)-2,3-dihydro-1-benzofuran-5-yl]oxy} acetic acid] | 9 | capable of inhibiting BACE2 cleavage of APP at the beta-secretase position with similar effectiveness to their inhibition of BACE1 cleavage at the same site |  | inhibit both BACE processing of APP | approximately 40% | decrease the production of Aβ42 relative to the production of Aβ40 | binds APP | does not bind sAPPβ
